Where two headings read alike, the source gives them in different places.
Target: human P2X7 receptor (Homo sapiens, UniProt Q99572, R270H/Y155H)
Assay: Evaluation of human P2X7 receptor inhibitory activity (Yo-Pro uptake, BzATP stimulation, FLIPR TETRA)
Format: cell-based
Details: 1321N1 cells stably expressing human P2X7 receptor, BzATP stimulation, Yo-Pro uptake
Description: Stably expressing cell line (1321N1 cell transfected with the human P2X7 receptor gene (GenBank accession number NM_002562.5 including T606C and G952A SNP)) was used. The cells were seeded in a 384-well microtiter plate at a concentration of 8000 cells/well and cultured in the medium (10% fetal bovine serum, 25 mM HEPES, 1% penicillin and streptomycin in DMEM) for one day at 37° C. under 5% carbon dioxide atmosphere. After replacing with 20 μL of the HBSS buffer (20 mM HEPES, 55.6 mM D-glucose, 1×HBSS(−), pH7.4-7.5), 15 μL of 17.3 μM Yo-Pro solution in the HBSS buffer was added. The plate was placed in high-throughput cellular screening system FLIPR TETRA (Molecullar Devices, LLC.) and 15 μL of 130 μM BzATP solution in the HBSS buffer was added. Measurement of fluorescence intensity by FLIPR TETRA was started. After eight minutes, 15 μL of DMSO solutions containing different concentrations of the compound of the present invention as prepared by dilution with the HBSS buffer were dispensed to each well through the built-in automatic dispenser, and the measurement of fluorescence intensity was continued for 20 minutes. […] Changing values of fluorescence intensity by the compound of the present invention were calculated by difference between maximum and minimum fluorescence intensity for 20 minutes. Inhibition ratios (%) were calculated from the following equation:
[formula] IC50 was calculated using logistic approximation.

[1] = read-out: IC50 (antagonistic activity for the human P2X7 receptor), class symbol
[2] = read-out: IC50 (antagonistic activity for the human P2X7 receptor)

Row | Structure (SMILES) | IC50 [1] [µM] | IC50 [2] [µM]
1 | COc1cn(Cc2ccc(F)cc2)c(Nc2cccc(Cl)c2C)nc1=O [Compound I-0001] | < 0.01 | 
2 | COc1cn(Cc2cc(F)cc(F)c2)c(Nc2cccc(Cl)c2C)nc1=O [Compound I-0002] | < 0.01 | 
3 | COc1cn(Cc2cc(F)cc(F)c2)c(Nc2cc3c(cc2C)COC3)nc1=O [Compound I-0003] | < 0.01 | 
4 | COc1cccc(Nc2nc(=O)c(OC)cn2Cc2ccccc2)c1C [Compound I-0007] | 0.01 to 0.1 | 
5 | COc1cn(CCc2ccccc2)c(Nc2cccc(Cl)c2C)nc1=O [Compound I-0008] |  | 0.037
6 | Cc1c(Cl)cccc1Nc1nc(=O)ccn1Cc1ccccc1 [Compound I-0009] | < 0.01 | 
7 | Cc1c(Cl)cccc1Nc1nc(=O)c(F)cn1Cc1ccccc1 [Compound I-0010] | < 0.01 | 
8 | Cc1c(Cl)cccc1Nc1nc(=O)c(Cl)cn1Cc1ccccc1 [Compound I-0011] | 0.01 to 0.1 | 
9 | Cc1c(Cl)cccc1Nc1nc(=O)c(C)cn1Cc1ccccc1 [Compound I-0012] | 0.01 to 0.1 | 
10 | Cc1c(Cl)cccc1Nc1nc(=O)c(C#N)cn1Cc1ccccc1 [Compound I-0013] |  | 0.039
11 | COc1cn(Cc2ccccc2C)c(Nc2cccc(C(F)(F)F)c2Cl)nc1=O [Compound I-0014] |  | 0.25
12 | Cc1ccccc1Cn1cc(O)c(=O)nc1Nc1cccc(C(F)(F)F)c1Cl [Compound I-0015] | 0.5 to 1 | 
13 | Cc1c(Cl)cccc1Nc1nc(=O)c(OCC(F)(F)F)cn1Cc1ccccc1 [Compound I-0016] | 0.01 to 0.1 | 
14 | Cc1c(Cl)cccc1Nc1nc(=O)c(C(=O)O)cn1Cc1ccccc1 [Compound I-0018] | 0.1 to 0.5 | 
15 | Cc1c(Cl)cccc1Nc1nc(=O)c(C(=O)NC2CCOCC2)cn1Cc1ccccc1 [Compound I-0019] |  | 0.049
16 | COC(=O)Nc1cn(Cc2ccccc2)c(Nc2cccc(Cl)c2C)nc1=O [Compound I-0020] |  | 0.017
17 | Cc1c(Cl)cccc1Nc1nc(=O)c(NC(=O)OC(C)(C)C)cn1Cc1ccccc1 [Compound I-0021] | 0.1 to 0.5 | 
18 | Cc1c(Cl)cccc1Nc1nc(=O)c(N)cn1Cc1ccccc1 [Compound I-0022] |  | 0.017

Row | Structure (SMILES) | IC50 [1] [µM] | IC50 [2] [µM]
19 | CCOC(=O)Cc1cn(Cc2ccccc2)c(Nc2cccc(Cl)c2C)nc1=O [Compound I-0023] | 0.1 to 0.5 | 
20 | Cc1c(Cl)cccc1Nc1nc(=O)c(CCO)cn1Cc1ccccc1 [Compound I-0024] | 0.01 to 0.1 | 
21 | Cc1c(Cl)cccc1Nc1nc(=O)c(CC(=O)O)cn1Cc1ccccc1 [Compound I-0025] | 0.5 to 1 | 
22 | Cc1c(Cl)cccc1Nc1nc(=O)c(CC(N)=O)cn1Cc1ccccc1 [Compound I-0026] | 0.01 to 0.1 | 
23 | Cc1c(Cl)cccc1Nc1nc(=O)c(Br)cn1Cc1ccccc1 [Compound I-0027] | 0.01 to 0.1 | 
24 | Cc1c(Cl)cccc1Nc1nc(=O)c(-c2ccccc2)cn1Cc1ccccc1 [Compound I-0028] | 0.5 to 1 | 
25 | Cc1nc2cc(C)c(Nc3cc(=O)n(C)c(=O)n3Cc3cc(F)c(F)c(F)c3)cc2s1 [Compound I-0030] |  | 0.034
26 | COc1cn(Cc2ccc(F)c(Cl)c2)c(Nc2cc3sc(C)nc3cc2C)nc1=O [Compound I-0033] |  | 0.049
27 | COc1cn(Cc2ccccc2)c(NCc2cccc(C(F)(F)F)c2Cl)nc1=O [Compound I-0035] | 0.1 to 0.5 | 
28 | COc1cn(Cc2ccccc2)c(Nc2cccc(C(F)(F)F)c2Cl)nc1=O [Compound I-0036] | 0.1 to 0.5 | 
29 | COc1cn(Cc2ccccc2)c(Nc2cccc(Cl)c2C)nc1=O [Compound I-0037] | < 0.01 | 
30 | COc1cn(Cc2ccc(F)cc2)c(Nc2cccc(C(F)(F)F)c2Cl)nc1=O [Compound I-0038] | 0.01 to 0.1 | 
31 | COc1cn(Cc2cccc(F)c2)c(Nc2cccc(Cl)c2C)nc1=O [Compound I-0039] | 0.01 to 0.1 | 
32 | COc1cn(Cc2ccccc2F)c(Nc2cccc(Cl)c2C)nc1=O [Compound I-0040] | 0.01 to 0.1 | 
33 | Cc1c(Cl)cccc1Nc1nc(=O)c(F)cn1Cc1ccc(F)cc1 [Compound I-0041] | < 0.01 | 
34 | COc1cn(Cc2ccccc2)c(NC2C[C@@H]3CC[C@H]2C3)nc1=O (some centres unmarked) [Compound I-0042] |  | 0.83
35 | COc1cn(Cc2ccccc2C)c(Nc2cccc(Cl)c2C)nc1=O [Compound I-0043] | 0.1 to 0.5 | 

Reference: patent US10774051B2, “6-membered heterocyclic derivatives and pharmaceutical composition comprising the same” (Shionogi & Co., Ltd., priority 2015, dated 2020)
